From patent US20040192686A1, “Benzoazine mono-N-oxides and benzoazine 1,4 dioxides and compositions therefrom for the therapeutic use in cancer treatments” (Auckland Uniservices Limited, priority 2003, published 2004)

Row | melting point [°C] | Compound
1 | 225 to 226 | CN(C)CCNC(=O)Cc1ccc(Nc2nc3ccccc3[n+]([O-])n2)cc1 [Compound 54, N-[2-(Dimethylamino)ethyl]-2-{4-[(1-oxido-1,2,4-benzotriazin-3-yl)amino]phenyl}acetamide]
2 | 125 to 127 | [O-][n+]1nc(-c2ccccc2)nc2ccccc21 [Compound 57, 3-Phenyl-1,2,4-benzotriazine 1-oxide]
3 | 168 to 170 | COc1ccc(-c2nc3ccccc3[n+]([O-])n2)cc1 [Compound 58, 3-(4-Methoxyphenyl)-1,2,4-benzotriazine 1-oxide]
4 | 85 to 86 | C=Cc1nc2ccccc2[n+]([O-])n1 [Compound 59, 3-Vinyl-1,2,4-benzotriazine 1-oxide]
5 | 57 to 58 | C=CCc1nc2ccccc2[n+]([O-])n1 [Compound 60, 3-Allyl-1,2,4-benzotriazine 1-oxide]
6 | 105 to 107 | [O-][n+]1nc(CC2CO2)nc2ccccc21 (stereo not shown) [Compound 62, 3-(2-Oxiranylmethyl)-1,2,4-benzotriazine 1-oxide]
7 | 56 to 58 | COCCc1nc2ccccc2[n+]([O-])n1 [Compound 63, 3-(2-Methoxyethyl)-1,2,4-benzotriazine 1-oxide]
8 | 99 to 100 | [O-][n+]1nc(CCCO)nc2ccccc21 [Compound 66, 3-(3-Hydroxypropyl)-1,2,4-benzotriazine 1-oxid]
9 | 156 to 158 | Cc1ccc2c(c1)nc(Cl)n[n+]2[O-] [Compound 73, 3-Chloro-6-methyl-1,2,4-benzotriazine 1-oxide]
10 | 198 to 202 | Cc1ccc2c(c1)nc(NCCO)n[n+]2[O-] [Compound 74, 2-[(6-Methyl-1-oxido-1,2,4-benzotriazin-3-yl)amino]ethanol]
11 | 143 to 145 | Cc1ccc2c(c1)nc(NCCN(C)C)n[n+]2[O-] [Compound 76, N^1,N^1-Dimethyl-N^2-(6-methyl-1-oxido-1,2,4-benzotriazin-3-yl)-1,2-ethanediamine]
12 | 162 to 165 | Cc1ccc2c(c1)nc(NCCN1C(C)CCCC1C)n[n+]2[O-] (stereo not shown) [Compound 78, N-[2-(2,6-Dimethyl-1-piperidinyl)ethyl]-6-methyl-1,2,4-benzotriazin-3-amine 1-oxide]
13 | 65 to 67 | C=CCc1nc2cc(C)ccc2[n+]([O-])n1 [Compound 80, 3-Allyl-6-methyl-1,2,4-benzotriazine 1-oxide]
14 | 121 to 123 | Cc1ccc2c(c1)nc(CCO)n[n+]2[O-] [Compound 81, 2-(6-Methyl-1-oxido-1,2,4-benzotriazin-3-yl)ethanol]
15 | 196 to 199 | COc1ccc2c(c1)nc(Cl)n[n+]2[O-] [Compound 83, 3-Chloro-6-methoxy-1,2,4-benzotriazine 1-oxide]
16 | 133 to 135 | COc1ccc2c(c1)nc(NCCN1CCCCC1)n[n+]2[O-] [Compound 85, 6-Methoxy-N-[2-(1-piperidinyl)ethyl]-1,2,4-benzotriazin-3-amine 1-oxide]
17 | 186 to 188 | COc1ccc2c(c1)nc(NCCN1CCOCC1)n[n+]2[O-] [Compound 86, 6-Methoxy-N-[2-(4-morpholinyl)ethyl]-1,2,4-benzotriazin-3-amine 1-oxide]
18 | 166 to 168 | Cc1ccc2nc(NCCN3CCCCC3)n[n+]([O-])c2c1 [Compound 89, 7-Methyl-N-[2-(1-piperidinyl)ethyl]-1,2,4-benzotriazin-3-amine 1-oxide]
19 | 162 to 165 | COc1ccc2nc(NCCN3CCCCC3)n[n+]([O-])c2c1 [Compound 93, 7-Methoxy-N-[2-(1-piperidinyl)ethyl]-1,2,4-benzotriazin-3-amine 1-oxide]
20 | 208 to 212 | COc1ccc2nc(NCCN3CCOCC3)n[n+]([O-])c2c1 [Compound 94, 7-Methoxy-N-[2-(4-morpholinyl)ethyl]-1,2,4-benzotriazin-3-amine 1-oxide]
21 | 121 to 125 | COCCOc1ccc2nc(Cl)n[n+]([O-])c2c1 [Compound 96, 3-Chloro-7-(2-methoxyethoxy)-1,2,4-benzotriazine 1-oxide]
22 | 95 to 97 | CCc1nc2ccc(OCCOC)cc2[n+]([O-])n1 [Compound 97, 3-Ethyl-7-(2-methoxyethoxy)-1,2,4-benzotriazine 1-oxid]
23 | 144 to 146 | [O-][n+]1nc(Cl)nc2ccc(OCCN3CCOCC3)cc21 [Compound 98, 3-Chloro-7-[2-(4-morpholinyl)ethoxy]-1,2,4-benzotriazine 1-oxide]
24 | 99 to 101 | CCc1nc2ccc(OCCN3CCOCC3)cc2[n+]([O-])n1 [Compound 99, 3-Ethyl-7-[2-(4-morpholinyl)ethoxy]-1,2,4-benzotriazine 1-oxide]
25 | 170 to 173 | Cc1cccc2nc(Cl)n[n+]([O-])c12 [Compound 100, 3-Chloro-8-methyl-1,2,4-benzotriazine 1-oxide]

Row | melting point [°C] | Compound
26 | 121 to 123 | Cc1cccc2nc(NCCN(C)C)n[n+]([O-])c12 [Compound 101, N^1,N^1-Dimethyl-N^2-(8-methyl-1-oxido-1,2,4-benzotriazin-3-yl)-1,2-ethanediamine]
27 | 148 to 149 | Cc1cc2nc(Cl)n[n+]([O-])c2cc1C [Compound 104, 3-Chloro-6,7-dimethyl-1-oxido-1,2,4-benzotriazine]
28 | 226 to 228 | Cc1cc2nc(NCCNC(=O)OC(C)(C)C)n[n+]([O-])c2cc1C [Compound 105, tert-Butyl 2-[(6,7-dimethyl-1-oxido-1,2,4-benzotriazin-3-yl)amino]ethylcarbamate]
29 | 175 to 178 | Cc1cc2nc(NCCN(C)C)n[n+]([O-])c2cc1C [Compound 106, N^1-(6,7-Dimethyl-1-oxido-1,2,4-benzotriazin-3-yl)-N^2,N^2-dimethyl-1,2-ethanediamine]
30 | 120 to 122 | Cc1cc(C)c2c(c1)nc(Cl)n[n+]2[O-] [Compound 108, 3-Chloro-6,8-dimethyl-1,2,4-benzotriazine 1-oxide]
31 | 176 to 179 | Cc1cc(C)c2c(c1)nc(NCCN(C)C)n[n+]2[O-] [Compound 109, N^1-(6,8-Dimethyl-1-oxido-1,2,4-benzotriazin-3-yl)-N^2,N^2-dimethyl-1,2-ethanediamine]
32 | 177 to 178 | Cc1cc(C)c2c(c1)nc(NCCN1CCCCC1)n[n+]2[O-] [Compound 110, 6,8-Dimethyl-N-[2-(1-piperidinyl)ethyl]-1,2,4-benzotriazin-3-amine 1-oxide]
33 | 289 to 292 | COc1cc2nc(N)n[n+]([O-])c2cc1C [Compound 112, 6-Methoxy-7-methyl-1,2,4-benzotriazin-3-amine 1-oxide]
34 | 180 to 182 | COc1cc2nc(Cl)n[n+]([O-])c2cc1C [Compound 113, 3-Chloro-6-methoxy-7-methyl-1,2,4-benzotriazine 1-oxide]
35 | 167 to 169 | COc1cc2nc(NCCN(C)C)n[n+]([O-])c2cc1C [Compound 114, N^1-(6-Methoxy-7-methyl-1-oxido-1,2,4-benzotriazin-3-yl)-N^2,N^2-dimethyl-1,2-ethanediamine]
36 | 200 to 202 | COc1cc2c(cc1C)nc(Cl)n[n+]2[O-] [Compound 117, 3-Chloro-7-methoxy-6-methyl-1,2,4-benzotriazine 1-oxide]
37 | 182 to 184 | COc1cc2c(cc1C)nc(NCCN(C)C)n[n+]2[O-] [Compound 118, N^1,N^1-Dimethyl-N^2-(7-methoxy-6-methyl-1-oxido-1,2,4-benzotriazin-3-yl)-1,2-ethanediamine]
38 | 195 to 197 | COc1cc2c(cc1C)nc(NCCN1CCCCC1)n[n+]2[O-] [Compound 119, 7-Methoxy-6-methyl-N-[2-(1-piperidinyl)ethyl]-1,2,4-benzotriazin-3-amine 1-oxide]
39 | 178 to 182 | O=C(NCCOCCNc1nc2ccccc2[n+]([O-])n1)c1cccc2cc3ccccc3nc12 [Compound 121, N-(2-{2-[(1-Oxido-1,2,4-benzotriazin-3-yl)amino]ethoxy}ethyl)-4-acridinecarboxamide]
40 | 124 to 126 | COCCNc1nc2ccccc2[n+]([O-])c1C#N [Compound 123, 3-[(2-Methoxyethyl)amino]-2-quinoxalinecarbonitrile 1-oxide]
41 | 175 to 180 | Nc1nc2ccccc2n[n+]1[O-] [Compound 126, 1,2,4-Benzotriazin-3-amine 2-oxide]
42 | 149 to 151 | [O-][n+]1nc(Cl)nc2cc(Cl)ccc21 [Compound 133, 3,6-Dichloro-1,2,4-benzotriazine 1-Oxide]
43 | 128 to 130 | CCN(CC)CCNc1nc2cc(Cl)ccc2[n+]([O-])n1 [Compound 134, N^1-(6-Chloro-1-oxido-1,2,4-benzotriazin-3-yl)-N^2,N^2-diethyl-1,2-ethanediamine]
44 | 178 to 181 | [O-][n+]1nc(NCCN2CCCCC2)nc2cc(Cl)ccc21 [Compound 135, 6-Chloro-N-[2-(1-piperidinyl)ethyl]-1,2,4-benzotriazin-3-amine 1-Oxide]
45 | 78 to 80 | CCN(CC)CCNc1nc2cc(C)ccc2[n+]([O-])n1 [Compound 137, N^1,N^1-Diethyl-N^2-(6-methyl-1-oxido-1,2,4-benzotriazin-3-yl)-1,2-ethanediamine]
46 | 182 to 184 | Cc1ccc2c(c1)nc(NCCN1CCOCC1)n[n+]2[O-] [Compound 138, 6-Methyl-N-[2-(4-morpholinyl)ethyl]-1,2,4-benzotriazin-3-amine 1-Oxide]
47 | 131 to 132 | Cc1ccc2c(c1)nc(NCCCN1CCOCC1)n[n+]2[O-] [Compound 139, 6-Methyl-N-[3-(4-morpholinyl)propyl]-1,2,4-benzotriazin-3-amine 1-Oxide]
48 | 88 to 90 | CCCN(CCC)CCNc1nc2cc(C)ccc2[n+]([O-])n1 [Compound 140, N^1-(6-Methyl-1-oxido-1,2,4-benzotriazin-3-yl)-N^2,N^2-dipropyl-1,2-ethanediamine]
49 | 170 to 171 | COc1ccc2c(c1)nc(NCCN1C(C)CCCC1C)n[n+]2[O-] (stereo not shown) [Compound 141, N-[2-(2,6-Dimethyl-1-piperidinyl)ethyl]-6-methoxy-1,2,4-benzotriazin-3-amine 1-oxide]
